This note sets out measurements from patent US12492403B2, “Aptamers and the use thereof in the treatment of cancer” (FUNDACIÓN PARA LA INVESTIGACIÓN BIOMÉDICA DEL HOSPITAL …, priority 2018, dated 2025).

The subject of series [1] is MCF7, MDA-MB-231, and MDA-MB-468 cells. Nature of the series: MTT activity after direct addition of aptamer (no transfectant). In kind it is cell-based, human. The conditions noted are these: direct addition without transfectant, highest tested concentration (0.5, 1, and 2 μM tested), 48 hours. As for the experimental part:
FIG. 17. MTT activity measurement in breast lines after the direct addition of apMNKQ2. MCF7, MDA-MB-231, and MDA-MB-468 cells were seeded in 96-well plates at a density of 10^4 cells/well, and apMNKQ2 was added at concentrations of 0.5, 1, and 2 μM at 24 hours. MTT assays were performed after 48 hours. The graphs represent the mean of 3 independent experiments, and are normalized with respect to the control of the untreated cells.
MTT activity. The cells were seeded in 96-well plates and after having been transfected, the culture medium was removed and 100 μL/well of MTT at 1 mg/ml in culture medium were added. The plates were incubated for 90 minutes in an incubator with a moisture-saturated environment at 37° C. and 5% CO2/[…] and 100 μL/well of a lysis solution (10% SDS and 10 mM HCl) were added for dissolving the crystals. After 48 hours, the reduction of MTT was determined by means of spectrophotometry in Infinite F200 (TECAN, Switzerland) at 540 nm.
The signal of the aptamer with lipofectamine (FIG. 16B) is more intense and less scattered than when the aptamer enters directly (FIG. 16A). The difference is more evident in the aggregates co-localized in the nucleus. […]

Series [2] can be described thus: Stability in human plasma. Format: in vitro ADME. The conditions noted are these: 37° C., 72 hours. As for the experimental part: FIGS. 7A and 7B. Stability of apMNKQ2. Chip Experion™ DNA 1K Analysis Kit (BioRad, USA) for analyzing the stability of apMNKQ2 with 1 unit, 0.5 units, and 0.25 units of DNase I (FIG. 7A). In FIG. 7B, the degradation of aptamer apMNKQ2 in human plasma at 0, 6, 16, 24, 48, and 72 hours is depicted.
The previously structured aptamer apMNKQ2 (1 μg) was incubated in the presence of 1 unit, 0.5 units, and 0.25 units of the enzyme DNase I (ThermoFisher Scientific, USA) in the buffer supplied by the company (10 mM Tris HCl, pH 7.5, 2.5 mM MgCl2, 0.1 mM CaCl2)) for 5 minutes at 37° C., and the reaction was then stopped by adding 1 μL of 50 mM EDTA (ThermoFisher Scientific, USA) and heating at 65° C. for 10 minutes. […] The samples were analyzed using an Experion™ DNA 1K Analysis Kit chip (BioRad, USA). The intensity of each of the bands corresponding to the aptamers treated or not treated with DNase I or plasmas was assessed and the percentage of stability was calculated by dividing the value obtained for each of the treated aptamers by the value obtained for the untreated aptamer.
Resistance of the aptamer to degradation by DNases was analyzed by incubating […] of structured apMNKQ2 in the presence of three concentrations of DNase I (Thermo Scientific, USA), as described in the Materials and Methods section. […]

A further series relates to MNK1. Nature of the series: Apta-western with biotin-labeled aptamer. In kind it is binding. An excerpt:
FIGS. 6A-6C. Characterization of the interaction of aptamer apMNKQ2 with MNK1 by means of Apta-western. Detection of MNK1a and MNK1b, as well as of the two GST-bound variants MNK1aΔ77 and MNK1ΔCt, with biotin-labeled aptamer apMNKQ2 in electrophoresis (12%) in denaturing conditions (FIG. 6A) and in native conditions (without SDS or β-mercaptoethanol) (FIG. 6B). Quantification of protein levels in relation to MNK1a (*p<0.05 with respect to 1) (FIG. 6C).
In the apta-western assays, the proteins were resolved in polyacrylamide gels in native or denaturing conditions, transferred to PVDF membranes, and incubated with aptamers and streptavidin-peroxidase as indicated above after blocking with 5% PBS-BSA. Finally, the signal was visualized with the chemiluminescence developing system (Clarity Western ECL, BioRad, USA).
On the other hand, apta-western assays were carried out to confirm the affinity of the aptamer apMNKQ2 for proteins MNK1a and MNK1b. To that end, the four constructs used in FIG. 5A were analyzed by electrophoresis, blot, and apta detection. […] This may be due to the fact that the site the aptamer recognizes may not be accessible in all the proteins when they are structured and said site may be exposed as the proteins denature. […] The result is shown in FIG. 6B and quantified in FIG. 6C.

Take “5′TGGGGTGGGCGGGCGGGGGTGGGGGTGGT-3′ (DNA, backbone and methylation of C not given here; further chemistry not fully specified) [apMNKQ2]”: the “reduction of MTT activity” value in series [1] came out at 15%. For the same substance, in series [2], the “degradation in human plasma” value is reported as “no degradation”. The “recognition of MNK1a, MNK1b, MNK1aΔ77 and MNK1ΔCt (apta-western)” value was “capable of recognizing and binding to the four isoforms of the protein in a similar manner” in the series on MNK1 (denaturing conditions); “capable of significantly differentiating MNK1b from other isoforms” in the series with MNK1 (native conditions (without SDS or β-mercaptoethanol)).
